Test results as given in publication PMC10451018 (Protein Science : A Publication of the Protein Society, 2023).

Columns and labels:
[1] = target: T1, Azorhizobium caulinodans malic enzyme, AcME (Azorhizobium caulinodans, UniProt A8IFW0); experiment: spectrophotometric NADH formation at […] nm; type: biochemical; settings: L-malate as co-substrate
T1 sequence (A8IFW0 1-759): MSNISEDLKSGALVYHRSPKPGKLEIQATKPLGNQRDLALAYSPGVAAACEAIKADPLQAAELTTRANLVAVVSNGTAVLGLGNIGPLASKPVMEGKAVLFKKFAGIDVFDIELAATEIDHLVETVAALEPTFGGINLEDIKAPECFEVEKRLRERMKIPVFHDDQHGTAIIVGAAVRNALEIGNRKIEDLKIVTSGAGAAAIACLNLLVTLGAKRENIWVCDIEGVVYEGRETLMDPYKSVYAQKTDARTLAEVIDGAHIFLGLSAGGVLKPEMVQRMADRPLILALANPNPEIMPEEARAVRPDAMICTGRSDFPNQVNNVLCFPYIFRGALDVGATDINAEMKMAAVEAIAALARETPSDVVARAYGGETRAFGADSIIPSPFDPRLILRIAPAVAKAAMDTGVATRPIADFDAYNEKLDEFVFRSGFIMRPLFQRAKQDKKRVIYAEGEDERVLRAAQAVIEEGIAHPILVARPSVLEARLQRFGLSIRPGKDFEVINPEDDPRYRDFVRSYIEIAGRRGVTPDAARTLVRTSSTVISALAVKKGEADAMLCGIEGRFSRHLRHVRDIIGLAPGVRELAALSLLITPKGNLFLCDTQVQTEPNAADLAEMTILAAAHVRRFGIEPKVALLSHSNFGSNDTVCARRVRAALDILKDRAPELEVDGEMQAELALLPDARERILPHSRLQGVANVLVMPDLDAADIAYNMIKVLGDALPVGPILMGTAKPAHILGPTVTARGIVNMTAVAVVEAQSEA

[2] = target: T2, Aeropyrum pernix malate dehydrogenase, ApMDH (Aeropyrum pernix, UniProt Q9YEA1); experiment: spectrophotometric NADH formation at […] nm; type: biochemical; settings: L-malate as co-substrate
T2 sequence (Q9YEA1 1-308): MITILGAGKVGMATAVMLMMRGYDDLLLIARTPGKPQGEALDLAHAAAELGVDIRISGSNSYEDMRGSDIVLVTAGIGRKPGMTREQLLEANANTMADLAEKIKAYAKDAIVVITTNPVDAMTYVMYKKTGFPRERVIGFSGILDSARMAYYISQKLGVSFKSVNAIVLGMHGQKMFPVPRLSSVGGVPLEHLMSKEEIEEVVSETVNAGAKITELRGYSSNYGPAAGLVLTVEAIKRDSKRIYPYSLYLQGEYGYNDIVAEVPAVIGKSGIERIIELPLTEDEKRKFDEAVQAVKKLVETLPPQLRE

## NC(=O)c1ccc[n+]([C@@H]2O[C@H](COP(=O)(O)OP(=O)(O)OC[C@H]3O[C@@H](n4cnc5c(N)ncnc54)[C@H](O)[C@@H]3O)[C@@H](O)[C@H]2O)c1 [NAD^+]
[1]
  spectrophotometric NADH formation at 340 nm: oxidation of L‐malate was accompanied by reduction of NAD^+ to NADH
[2]
  spectrophotometric NADH formation at 340 nm: oxidation of L‐malate was accompanied by reduction of NAD^+ to NADH
